From PubChem BioAssay AID720668 (NMMLSC, 2013)
Activity calls are given as the source filed them.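 How the source made its calls: active means MAPK inhibition above 50%; inactive means inhibition below 50%.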

test system: ERK MAP kinase activity (EKAR reporter), human; test: inhibitors of ERK MAP kinase catalytic activity, late-stage follow-up, mechanism study for lytic granule exocytosis inhibitor project, TALL-104 cells, EKAR, flow cytometry, CherryPick01 (AID 720668); conditions: EKAR/pCdc25C flow cytometry, PMA/thapsigargin, at 30 µM, stronger effect = higher value

inhibition, inactive:
CCCCC[C@@H](C)N1C[C@@H](COCc2ccccc2)Oc2cc(N3CC[C@H](N(C)C)C3)ccc2S1(=O)=O 6.3%, O=CNc1cc(-c2ccsc2)cn2c(-c3ccccc3)cnc12 -19%, COc1ccc(N2C(=O)CC(Sc3nnc(-c4ccccc4)o3)C2=O)cc1 (configuration not stated) -4%, COc1ccc(-c2cc(NC=O)c3ncc(-c4cccc(OC)c4)n3c2)cc1 -34.2%, CC1COCC(C)N1C1=C(Cl)C(=O)c2ccccc2C1=O (configuration not stated) -52.7%, CCCCC[C@@H](C)N1C[C@H](COCc2ccccc2)Oc2cc(N3CC[C@@H](N(C)C)C3)ccc2S1(=O)=O -5.3%, O=C(Cn1sc2ccccc2c1=O)NC12CC3CC(CC(C3)C1)C2 29.8%, Cc1ccc(S(=O)(=O)n2ccc3c(OCCOCCNCc4ccc(F)cc4)cccc32)cc1 -15.1%, CC1=NOC(=O)/C1=C/c1ccc(-c2ccc(Cl)cc2)o1 16.5%, O=C(CN1C(=O)/C(=C\c2cccc(Br)c2)Oc2ccccc21)NCCCN1CCOCC1 -3.6%, CC(C)(c1ccccc1)c1ccc(OCC(O)CNC2CCN(Cc3ccccc3)CC2)cc1 (configuration not stated) -13.5%, COC(=O)c1c(NC(=O)c2nc3ccccc3s2)sc2c1CC(C)(C)NC2(C)C 14.4%, COc1ccc(-n2sc3ccccc3c2=O)cc1 13.3%, COc1ccccc1CNc1nc(NCc2ccc(C(C)C)cc2)c2sccc2n1 -9.9%, O=C(Cn1sc2ccccc2c1=O)Nc1ccc(F)cc1 4.6%, COc1ccc(-c2cc(NC=O)c3ncc(-c4ccccc4)n3c2)cc1OC -19.8%, CN(C)CCNC(=O)c1ccc(-c2cn3c(-c4ccc(Oc5ccccc5)cc4)cnc3cn2)cc1 -6.6%, CCN(CC)CCCNc1ccc(-c2nnc(-c3ccc(OCC(C)C)cc3)o2)cn1 -20.8%, CCCCC[C@@H](C)N1C[C@@H](COCc2ccccc2)Oc2cc(N3CC[C@@H](N(C)C)C3)ccc2S1(=O)=O 7.3%, O=c1c2ccccc2sn1-c1ccccc1 -1.6%, Cc1ccc(Nc2nc(NCc3ccco3)c3ccccc3n2)cc1 -6.4%, O=c1c2ccc(F)cc2sn1-c1ccccc1 21.5%
